# Earlier results in patent US10548855B2, “Memantine combinations and use” (CHASE PHARMACEUTICALS CORPORATION, priority 2016, dated 2020).
# Tested on: mice
# Conditions: water maze, 2 mg/kg
structure (smiles),measurement,value
"CC12CC3CC(C)(C1)CC(N)(C3)C2 [memantine, 3,5-dimethyladamantan-1-amine]",effect on scopolamine-induced learning deficits,reverses scopolamine-induced learning deficits
